# Legend:
# [1] = target: T1, Drosophila OR13a (Drosophila melanogaster, UniProt Q9VXL0); test: cell-based; design: GCaMP6 calcium fluorescence in stable HEK293 OR+ORCO lines; peak dF normalised to 50 uM VUAA1 (=1); details: HEK293; relative to 50 uM VUAA1 response; below 0.05 set to 0; read-out: % activation
# T1 construct: expressed in transfected cells
# T1 sequence (Q9VXL0 1-418): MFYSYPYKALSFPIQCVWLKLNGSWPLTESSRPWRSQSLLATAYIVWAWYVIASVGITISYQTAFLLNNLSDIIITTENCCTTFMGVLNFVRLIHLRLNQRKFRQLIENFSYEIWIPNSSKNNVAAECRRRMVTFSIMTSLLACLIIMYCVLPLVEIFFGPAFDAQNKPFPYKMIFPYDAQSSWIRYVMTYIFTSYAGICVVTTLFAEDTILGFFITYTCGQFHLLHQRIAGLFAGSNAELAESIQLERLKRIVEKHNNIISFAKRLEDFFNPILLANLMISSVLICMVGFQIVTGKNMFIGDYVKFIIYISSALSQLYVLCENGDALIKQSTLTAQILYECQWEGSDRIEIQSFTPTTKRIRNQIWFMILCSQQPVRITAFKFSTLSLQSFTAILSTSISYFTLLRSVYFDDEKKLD
# T1 sequence (Q9VNB5 1-486 partner): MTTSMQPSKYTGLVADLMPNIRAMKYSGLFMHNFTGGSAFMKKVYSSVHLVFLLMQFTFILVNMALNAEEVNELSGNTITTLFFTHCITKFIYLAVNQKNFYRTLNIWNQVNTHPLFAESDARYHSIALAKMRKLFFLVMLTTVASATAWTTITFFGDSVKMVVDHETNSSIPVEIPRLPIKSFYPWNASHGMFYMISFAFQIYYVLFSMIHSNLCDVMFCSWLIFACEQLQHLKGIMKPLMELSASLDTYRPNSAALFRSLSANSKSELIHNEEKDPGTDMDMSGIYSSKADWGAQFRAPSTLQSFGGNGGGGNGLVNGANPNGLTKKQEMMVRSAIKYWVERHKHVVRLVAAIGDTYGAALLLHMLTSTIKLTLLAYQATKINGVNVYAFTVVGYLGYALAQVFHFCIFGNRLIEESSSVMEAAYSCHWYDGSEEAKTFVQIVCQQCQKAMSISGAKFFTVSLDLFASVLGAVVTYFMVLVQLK
# Experimental: (§1) Twelve thousand to 18,000 cells were plated into each well of a black wall, transparent bottom 384-well microplate (Greiner) 48 h or 72 h before the measurements and were simultaneously treated with 1 μg/mL doxycycline. Typically, three columns were filled with one OR expressing cell line, each row was treated with the same compound (three technical replicates for each OR), and each responsive VOC-OR combination was measured at least three times on different days. The plate has 24 columns, thus we could record responses in up to eight different cell lines in each plate. On the day of the experiment, the growth medium was replaced with 20 µL assay buffer/well (140 mM NaCl, 5 mM KCl, 2 mM CaCl2, 1 mM MgCl2, 5 mM HEPES-Na, 20 mM glucose, pH 7.3, 340 mOsm). […] Baseline fluorescence (F0) was recorded for 5 s, after which 7 µL VOC buffer (140 mM NaCl, 5 mM KCl, 2 mM CaCl2, 1 mM MgCl2, 5 mM HEPES-Na, 31 mM glucose, 0.1% DMSO, pH 7.3, 340 mOsm) was injected into each well in one row and the fluorescence response was recorded for an additional 30 s, at a rate of one read/sec. VOC solutions (VOC buffer with 4× concentration of the final measured VOC concentration, 9 µL/well was injected) were measured on the same wells in a second round with the same protocol. Each individual concentration of a specific VOC sample was recorded in three wells for the same cell line on the same microplate. The raw data were exported in xls file format, F0 and FMAX values, and the fluorescence intensity changes (∆F) were calculated in Excel (Microsoft) (Supplementary file Data summary.xlsx) using the following equation: ΔF=FMAX-F0/F0 (see also Fig. 1C). On each plate, we recorded the response of each cell line to 50 µM VUAA1. The average of these ∆F values of each cell line were used to calculate the VUAA1-normalized values for the rest of the plate, by dividing VOC response ∆F values by the average VUAA1 response ∆F value of the corresponding OR cell line. Each VOC-OR combination was measured three times as tec The recorded FMAX, F0, ∆F, VUAA1-normalized ∆F values, as well as the OR name, the name of the tested sample, and the final concentration for each well were copied into supplementary file Data summary.xlsx, that was used to summarize all the plates recorded. Here, the averages of the measurements were calculated for each receptor-VOC-concentration combination. […] Each VOC was measured at 1, 10, and 100 µM final concentration on each receptor. VUAA1-normalized response was calculated as described in methods. Values are averages of at least three biological replicates for responsive combinations and two for the non-responsive combinations. The chemical structures of the strong and medium ligands are shown for each cell line. Heat map: white-green colors correspond to the lowest-highest values measured for each cell line.
# [2] = target: T2, Drosophila OR71a (Drosophila melanogaster, UniProt Q9VUK5); test: cell-based; design: GCaMP6 calcium fluorescence in stable HEK293 OR+ORCO lines; peak dF normalised to 50 uM VUAA1 (=1); details: HEK293; relative to 50 uM VUAA1 response; below 0.05 set to 0; read-out: % activation
# T2 construct: expressed in transfected cells
# T2 sequence (Q9VUK5 1-378): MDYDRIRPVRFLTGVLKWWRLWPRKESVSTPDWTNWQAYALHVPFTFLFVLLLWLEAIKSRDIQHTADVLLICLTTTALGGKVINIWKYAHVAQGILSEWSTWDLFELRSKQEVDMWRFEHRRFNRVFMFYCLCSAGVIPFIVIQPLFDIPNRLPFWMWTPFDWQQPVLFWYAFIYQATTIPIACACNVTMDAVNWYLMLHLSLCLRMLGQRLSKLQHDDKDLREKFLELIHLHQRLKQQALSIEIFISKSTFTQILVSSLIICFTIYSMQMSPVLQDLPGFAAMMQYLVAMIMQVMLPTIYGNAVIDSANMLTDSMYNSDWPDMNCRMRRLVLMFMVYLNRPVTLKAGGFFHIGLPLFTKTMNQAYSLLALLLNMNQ
# T2 sequence (Q9VNB5 1-486 partner): T1 sequence (Q9VNB5 1-486 partner)
# Experimental: as §1
smiles,measurement,setting,value
CC/C=C/CCO [e3-hexenol],activity at 1 µM,[1],0%
same,activity at 10 µM,[1],0%
same,activity at 100 µM,[1],7.11%
same,activity at 1 µM,[2],0%
same,activity at 10 µM,[2],0%
same,activity at 100 µM,[2],0%
